Test [1] deals with Mitogen-activated protein kinase kinase kinase 8 (Homo sapiens, UniProt P41279). The test can be described thus: Inhibition of TPL2.
The target of test [2] is T1, Aurora kinase A (Homo sapiens) (UniProt O14965).
T1 sequence (whole entry): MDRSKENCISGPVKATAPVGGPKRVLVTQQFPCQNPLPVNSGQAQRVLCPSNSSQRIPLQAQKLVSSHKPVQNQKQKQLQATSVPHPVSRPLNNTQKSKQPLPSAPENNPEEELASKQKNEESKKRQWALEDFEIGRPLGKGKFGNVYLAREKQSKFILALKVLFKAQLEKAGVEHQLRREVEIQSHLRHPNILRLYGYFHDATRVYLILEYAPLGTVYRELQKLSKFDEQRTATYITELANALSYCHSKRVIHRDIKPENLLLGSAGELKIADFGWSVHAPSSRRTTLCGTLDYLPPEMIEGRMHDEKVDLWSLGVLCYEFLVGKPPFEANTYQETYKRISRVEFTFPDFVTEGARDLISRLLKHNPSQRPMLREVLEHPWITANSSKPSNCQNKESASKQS
In words: Inhibition of Aurora A at 1 uM.

In test [3] the target is T2, Serine/threonine-protein kinase Chk1 (Homo sapiens) (UniProt O14757).
T2 sequence (whole entry): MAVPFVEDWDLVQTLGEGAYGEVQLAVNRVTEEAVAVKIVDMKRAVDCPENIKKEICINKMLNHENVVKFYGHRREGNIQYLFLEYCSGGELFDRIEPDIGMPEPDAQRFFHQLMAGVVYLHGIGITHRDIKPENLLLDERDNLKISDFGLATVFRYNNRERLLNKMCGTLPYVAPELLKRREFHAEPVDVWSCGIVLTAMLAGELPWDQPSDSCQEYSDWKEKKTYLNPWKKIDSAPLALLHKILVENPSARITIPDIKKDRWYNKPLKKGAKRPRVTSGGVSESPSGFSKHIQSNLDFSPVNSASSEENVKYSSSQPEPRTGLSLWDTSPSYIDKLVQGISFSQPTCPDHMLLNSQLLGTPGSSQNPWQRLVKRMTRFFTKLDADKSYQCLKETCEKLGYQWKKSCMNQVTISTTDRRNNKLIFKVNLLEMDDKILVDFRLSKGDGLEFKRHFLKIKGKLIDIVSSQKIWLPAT
The test can be described thus: Inhibition of CHK1 at 1 uM.

In test [4] the target is Serine/threonine-protein kinase Chk2 (Homo sapiens) (UniProt O96017). In words: Inhibition of CHK2 at 1 uM.
Test [5] deals with Proto-oncogene tyrosine-protein kinase Src (Homo sapiens) (UniProt P12931). In words: Inhibition of SRC at 1 uM.
Proto-oncogene tyrosine-protein kinase Src (Homo sapiens), sequence (P12931 2-536 limits assumed): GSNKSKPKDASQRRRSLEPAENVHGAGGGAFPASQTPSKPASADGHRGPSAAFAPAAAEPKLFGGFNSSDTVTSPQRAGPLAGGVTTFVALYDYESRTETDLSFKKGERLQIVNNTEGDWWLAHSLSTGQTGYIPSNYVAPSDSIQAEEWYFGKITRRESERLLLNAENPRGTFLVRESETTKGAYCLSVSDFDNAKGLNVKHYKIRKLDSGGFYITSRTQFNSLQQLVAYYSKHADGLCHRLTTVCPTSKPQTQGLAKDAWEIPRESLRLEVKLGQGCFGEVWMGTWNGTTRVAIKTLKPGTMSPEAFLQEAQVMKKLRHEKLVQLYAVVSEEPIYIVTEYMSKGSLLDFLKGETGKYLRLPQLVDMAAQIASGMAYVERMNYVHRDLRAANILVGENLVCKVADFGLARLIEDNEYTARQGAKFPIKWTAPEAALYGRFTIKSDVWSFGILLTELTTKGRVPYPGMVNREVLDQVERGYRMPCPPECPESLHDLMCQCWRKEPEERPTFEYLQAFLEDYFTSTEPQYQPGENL
Test [6] has as its target Epidermal growth factor receptor (Homo sapiens) (UniProt P00533). In words: Inhibition of EGFR at 1 uM.
Test [7] concerns the target Fibroblast growth factor receptor 1 (Homo sapiens) (UniProt P11362). The test can be described thus: Inhibition of FGFR1 at 1 uM.
Test [8] deals with MAP kinase-activated protein kinase 2 (Homo sapiens) (UniProt P49137). The test can be described thus: Inhibition of MK2 at 1 uM.
Test [9] has as its target Serine/threonine-protein kinase MARK1 (Homo sapiens) (UniProt Q9P0L2). In words: Inhibition of MARK1 at 1 uM.
Test [10] has as its target Hepatocyte growth factor receptor (Homo sapiens) (UniProt P08581). The test can be described thus: Inhibition of MET at 1 uM.
In test [11] the target is T3, Serine/threonine-protein kinase 3 (Homo sapiens) (UniProt Q13188).
T3 sequence (whole entry): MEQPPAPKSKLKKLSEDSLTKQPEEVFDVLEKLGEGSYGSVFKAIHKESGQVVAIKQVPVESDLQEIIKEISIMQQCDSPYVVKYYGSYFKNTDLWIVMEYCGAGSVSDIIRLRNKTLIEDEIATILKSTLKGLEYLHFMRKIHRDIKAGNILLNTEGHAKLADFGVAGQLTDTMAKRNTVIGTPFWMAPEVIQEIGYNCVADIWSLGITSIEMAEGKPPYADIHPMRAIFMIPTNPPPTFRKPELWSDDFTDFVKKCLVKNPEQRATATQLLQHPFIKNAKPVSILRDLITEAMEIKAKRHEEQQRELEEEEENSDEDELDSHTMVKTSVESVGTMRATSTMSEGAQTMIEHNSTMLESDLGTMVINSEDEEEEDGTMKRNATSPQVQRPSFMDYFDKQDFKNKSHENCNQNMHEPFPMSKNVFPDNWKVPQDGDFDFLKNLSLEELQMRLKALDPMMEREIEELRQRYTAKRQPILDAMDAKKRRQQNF
The test can be described thus: Inhibition of MST2 at 1 uM.

The target in test [12] is T4, Serine/threonine-protein kinase Nek2 (Homo sapiens) (UniProt P51955).
T4 sequence (whole entry): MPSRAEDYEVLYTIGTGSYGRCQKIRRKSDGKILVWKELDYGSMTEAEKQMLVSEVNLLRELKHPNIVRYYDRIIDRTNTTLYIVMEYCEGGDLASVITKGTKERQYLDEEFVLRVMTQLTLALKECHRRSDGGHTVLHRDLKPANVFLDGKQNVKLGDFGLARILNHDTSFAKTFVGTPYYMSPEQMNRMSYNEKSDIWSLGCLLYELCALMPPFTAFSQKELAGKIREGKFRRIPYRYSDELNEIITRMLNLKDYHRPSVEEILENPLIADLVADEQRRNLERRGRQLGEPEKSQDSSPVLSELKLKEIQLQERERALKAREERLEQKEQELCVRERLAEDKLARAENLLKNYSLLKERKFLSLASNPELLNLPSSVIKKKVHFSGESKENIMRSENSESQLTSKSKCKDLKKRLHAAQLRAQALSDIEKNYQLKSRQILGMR
The test can be described thus: Inhibition of NEK2 at 1 uM.

Test [13] deals with Serine/threonine-protein kinase PAK 4 (Homo sapiens) (UniProt O96013). The test can be described thus: Inhibition of PAK4 at 1 uM.
Test [14] can be described thus: Inhibition of PKA at 1 uM.
Test [15] has as its target Casein kinase I isoform alpha (Homo sapiens) (UniProt P48729). In words: Inhibition of CK1-alpha1 at 1 uM.
Test [16] can be described thus: Inhibition of P38 at 1 uM.
Test [17] addresses Rho-associated protein kinase 1 (Homo sapiens) (UniProt Q13464). The test can be described thus: Inhibition of ROCK1 at 1 uM.

Rho-associated protein kinase 1 (Homo sapiens), sequence (Q13464 whole entry, looked up): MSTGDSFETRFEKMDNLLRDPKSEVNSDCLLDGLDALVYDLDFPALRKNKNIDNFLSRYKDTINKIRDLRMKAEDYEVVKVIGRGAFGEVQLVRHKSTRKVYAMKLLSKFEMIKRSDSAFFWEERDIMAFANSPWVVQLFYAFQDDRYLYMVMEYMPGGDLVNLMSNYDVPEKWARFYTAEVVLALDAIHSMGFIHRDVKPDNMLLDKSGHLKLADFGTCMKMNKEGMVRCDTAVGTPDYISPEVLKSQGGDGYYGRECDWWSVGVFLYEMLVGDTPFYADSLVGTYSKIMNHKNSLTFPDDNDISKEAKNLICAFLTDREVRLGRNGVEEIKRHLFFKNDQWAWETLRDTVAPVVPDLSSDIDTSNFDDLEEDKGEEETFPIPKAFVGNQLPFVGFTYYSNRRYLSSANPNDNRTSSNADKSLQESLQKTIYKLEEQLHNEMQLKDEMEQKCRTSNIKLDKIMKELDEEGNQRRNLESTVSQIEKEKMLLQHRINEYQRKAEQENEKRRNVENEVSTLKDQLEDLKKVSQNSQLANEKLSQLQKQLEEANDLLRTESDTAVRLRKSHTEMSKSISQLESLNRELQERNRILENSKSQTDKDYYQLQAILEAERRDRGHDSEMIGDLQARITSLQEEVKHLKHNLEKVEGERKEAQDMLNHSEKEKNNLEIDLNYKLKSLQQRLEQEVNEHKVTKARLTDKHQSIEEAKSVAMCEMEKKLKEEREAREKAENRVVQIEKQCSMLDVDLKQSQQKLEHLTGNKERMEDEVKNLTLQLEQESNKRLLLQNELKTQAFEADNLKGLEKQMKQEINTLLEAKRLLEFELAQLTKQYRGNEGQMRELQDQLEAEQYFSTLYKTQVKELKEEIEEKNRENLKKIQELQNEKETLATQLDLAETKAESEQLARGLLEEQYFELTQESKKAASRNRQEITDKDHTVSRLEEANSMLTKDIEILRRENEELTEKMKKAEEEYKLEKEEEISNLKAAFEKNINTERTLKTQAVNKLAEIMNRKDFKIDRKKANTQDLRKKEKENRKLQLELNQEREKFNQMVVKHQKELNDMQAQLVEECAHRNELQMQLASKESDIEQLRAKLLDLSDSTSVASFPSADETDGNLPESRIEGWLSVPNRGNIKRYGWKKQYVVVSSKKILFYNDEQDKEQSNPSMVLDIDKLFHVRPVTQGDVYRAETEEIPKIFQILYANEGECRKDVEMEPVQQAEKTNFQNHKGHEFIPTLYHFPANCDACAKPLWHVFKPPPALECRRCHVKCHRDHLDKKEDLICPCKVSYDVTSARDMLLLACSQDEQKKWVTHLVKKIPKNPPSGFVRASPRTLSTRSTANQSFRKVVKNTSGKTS
Mitogen-activated protein kinase kinase kinase 8, sequence (P41279 whole entry): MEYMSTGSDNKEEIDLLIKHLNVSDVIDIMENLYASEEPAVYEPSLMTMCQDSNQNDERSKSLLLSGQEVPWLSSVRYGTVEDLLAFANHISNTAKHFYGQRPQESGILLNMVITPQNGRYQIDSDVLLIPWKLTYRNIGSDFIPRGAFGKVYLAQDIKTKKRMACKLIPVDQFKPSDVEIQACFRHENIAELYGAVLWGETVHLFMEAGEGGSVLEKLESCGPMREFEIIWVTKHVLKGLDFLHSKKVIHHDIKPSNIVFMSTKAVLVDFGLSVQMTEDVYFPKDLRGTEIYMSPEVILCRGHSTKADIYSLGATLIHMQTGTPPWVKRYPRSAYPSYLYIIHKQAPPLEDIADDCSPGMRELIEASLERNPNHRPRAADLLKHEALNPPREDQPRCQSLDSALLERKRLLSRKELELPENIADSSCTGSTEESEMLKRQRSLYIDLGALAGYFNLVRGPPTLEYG
Epidermal growth factor receptor (Homo sapiens), sequence (P00533 whole entry): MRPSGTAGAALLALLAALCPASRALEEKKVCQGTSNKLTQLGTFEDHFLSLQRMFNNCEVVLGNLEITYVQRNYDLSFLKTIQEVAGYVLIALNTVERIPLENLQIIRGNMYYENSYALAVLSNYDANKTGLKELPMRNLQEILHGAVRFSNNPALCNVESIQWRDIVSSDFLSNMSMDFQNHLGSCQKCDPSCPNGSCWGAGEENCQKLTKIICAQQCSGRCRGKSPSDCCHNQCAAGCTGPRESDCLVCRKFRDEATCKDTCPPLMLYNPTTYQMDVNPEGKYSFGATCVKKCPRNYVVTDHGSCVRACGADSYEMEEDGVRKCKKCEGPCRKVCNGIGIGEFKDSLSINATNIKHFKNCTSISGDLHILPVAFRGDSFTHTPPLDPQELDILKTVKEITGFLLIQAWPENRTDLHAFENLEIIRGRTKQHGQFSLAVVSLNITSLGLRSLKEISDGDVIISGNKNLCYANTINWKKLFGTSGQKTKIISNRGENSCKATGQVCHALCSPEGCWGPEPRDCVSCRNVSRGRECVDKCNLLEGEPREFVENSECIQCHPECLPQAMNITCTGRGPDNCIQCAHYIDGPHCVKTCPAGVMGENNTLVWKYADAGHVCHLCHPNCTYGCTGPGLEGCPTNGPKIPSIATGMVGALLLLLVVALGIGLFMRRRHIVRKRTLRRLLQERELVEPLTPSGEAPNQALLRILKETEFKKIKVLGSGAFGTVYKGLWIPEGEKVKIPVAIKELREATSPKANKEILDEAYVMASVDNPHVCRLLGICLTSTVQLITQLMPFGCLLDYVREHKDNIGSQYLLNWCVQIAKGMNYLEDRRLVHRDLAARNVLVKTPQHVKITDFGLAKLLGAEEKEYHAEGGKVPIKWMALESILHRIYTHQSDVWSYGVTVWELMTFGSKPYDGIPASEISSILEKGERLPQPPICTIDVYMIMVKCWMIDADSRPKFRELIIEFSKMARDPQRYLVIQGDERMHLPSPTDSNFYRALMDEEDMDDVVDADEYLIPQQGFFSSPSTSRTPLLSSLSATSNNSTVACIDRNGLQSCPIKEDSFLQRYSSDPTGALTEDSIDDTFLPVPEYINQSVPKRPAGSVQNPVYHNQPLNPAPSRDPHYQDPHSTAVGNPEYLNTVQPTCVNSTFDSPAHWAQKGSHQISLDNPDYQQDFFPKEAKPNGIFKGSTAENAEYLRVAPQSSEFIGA
Casein kinase I isoform alpha (Homo sapiens), sequence (P48729 2-337 limits assumed): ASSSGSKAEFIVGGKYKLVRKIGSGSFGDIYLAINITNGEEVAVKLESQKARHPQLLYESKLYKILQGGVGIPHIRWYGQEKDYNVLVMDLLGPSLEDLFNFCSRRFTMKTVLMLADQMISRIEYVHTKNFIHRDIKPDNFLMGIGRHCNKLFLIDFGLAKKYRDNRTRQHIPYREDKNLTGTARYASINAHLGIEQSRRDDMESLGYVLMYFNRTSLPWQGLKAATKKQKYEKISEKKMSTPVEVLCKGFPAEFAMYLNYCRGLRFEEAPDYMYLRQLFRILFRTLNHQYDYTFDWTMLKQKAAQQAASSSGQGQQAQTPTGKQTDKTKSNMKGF
Serine/threonine-protein kinase MARK1 (Homo sapiens), sequence (Q9P0L2 whole entry, looked up): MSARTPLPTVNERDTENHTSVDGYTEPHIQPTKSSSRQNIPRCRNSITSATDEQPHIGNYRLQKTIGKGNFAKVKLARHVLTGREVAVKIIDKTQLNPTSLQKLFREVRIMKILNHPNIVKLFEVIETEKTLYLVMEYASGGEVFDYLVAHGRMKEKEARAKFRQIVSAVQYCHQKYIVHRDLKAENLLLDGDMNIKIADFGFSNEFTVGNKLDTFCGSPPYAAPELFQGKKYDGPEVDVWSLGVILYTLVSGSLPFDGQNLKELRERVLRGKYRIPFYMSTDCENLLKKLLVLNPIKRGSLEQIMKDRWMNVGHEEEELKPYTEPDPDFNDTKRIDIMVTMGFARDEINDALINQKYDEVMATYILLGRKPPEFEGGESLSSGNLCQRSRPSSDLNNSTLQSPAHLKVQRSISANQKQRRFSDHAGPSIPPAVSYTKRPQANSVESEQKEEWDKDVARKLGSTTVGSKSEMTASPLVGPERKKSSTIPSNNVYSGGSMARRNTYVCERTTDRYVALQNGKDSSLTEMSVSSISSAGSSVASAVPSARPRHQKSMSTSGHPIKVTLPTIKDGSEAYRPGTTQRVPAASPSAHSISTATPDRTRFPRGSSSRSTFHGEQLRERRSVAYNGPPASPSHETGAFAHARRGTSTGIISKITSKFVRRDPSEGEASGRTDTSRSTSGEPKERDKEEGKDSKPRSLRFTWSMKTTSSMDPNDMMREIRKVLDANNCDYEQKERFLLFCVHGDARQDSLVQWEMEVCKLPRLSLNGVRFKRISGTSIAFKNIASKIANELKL

`CC(=O)Nc1ccc(-c2cc3ncnc(SCC(=O)O)c3s2)cc1`: the IC50 in test [1] was found to be 0.18 µM. Moreover, the inhibition is 50.5% in [2]; -0.8% in test [3]; 10.8% in test [4]; 17% in test [5]; -3.8% in test [6]; 11% in test [7]. For the same compound, the inhibition in test [8] is 3.3%; in [9], 23%; in test [10], 9.8%; in test [11] it was 27.3%; in [12], 3.3%; in test [13] it was 11%. Moreover, the inhibition was -3.3% in test [14], -1.3% in [15], 5.3% in test [16] and 17% in test [17].

On to `O=C(O)COc1ncnc2cc(-c3ccc4[nH]ncc4c3)sc12`, for which the IC50 in [1] is 1 µM. Besides, the inhibition was 88.5% in test [2]; -7.8% in [3]; -2.3% in test [4]; 29% in test [5]; -1.3% in test [6]; 3.3% in test [7]. Moreover, the inhibition in test [8] was 25.3%; in [9] it was 1.3%; in [10], 21.8%; in test [11], -3.3%; in [12], -3.5%; in test [13], -9%. The inhibition in test [14] is 6.8%; in [15] it was 4.5%; in test [16] it was -0.8%; in test [17], 26%.

The IC50 is the concentration needed to halve the response being measured. High values mean lower potency, low ones higher potency. The inhibition is the change of the read-out against control, counted positive when it falls.

The values above are taken from ChEMBL document CHEMBL1833910, “Identification and SAR of a new series of thieno[3,2-d]pyrimidines as Tpl2 kinase inhibitors” (Bioorg Med Chem Lett, 2011).
